The record followed here is patent US8969395B2, “Triterpenoid derivatives useful as antiproliferative agents” (Universidade de Coimbra, priority 2009, dated 2015).

What all share (type): cell-based
The test system of assay [1] is Jurkat (human leukemia). The experiment in a line: Cytotoxic activity, XTT assay, Jurkat. The note with it: 72 h, mean ±SD. As to the method: (§1) The cytotoxic of compounds of formulas (I) and (II) 14-50 was assessed towards human cancer (HepG2, HeLa and Jurkat) cell lines (Table 3 below). Compounds presented on Table 4 were also tested against a non-tumoral liver cell line (Chang liver). The cell viability of HeLa, HepG2 and Chang liver cells was determined by the MTT assay. Briefly, exponentially growing cells were plated in 96-well plates at a density of 1×10^3, 8×10^3 and 5×10^3 cells/well respectively and incubated for 24 h before treatment. The grown medium was replaced with one contained the tested compounds dissolved in DMSO (final DMSO concentration <0.1%) at different concentrations, in triplicate wells, and cells were incubated for 72 h. After incubation with the compounds, the medium was removed and MTT solution (0.5 mg/ml, 100 μl) was added to each well and the plates were incubated again for 1 h. DMSO (100 μl) was then added to dissolve the formazan crystals and the plates were immediately read at 550 nm on an ELISA plate reader (Tecan Sunrise MR20-301, TECAN, Austria). For the Jurkat cells, the cell viability was determined by the XTT assay. Briefly, exponentially growing cells were plated in 96-well plates at a density of 5.5×10^3 cells/well, treated with different concentrations of compounds in triplicate and incubated for 72 h. After incubation with the compounds the XTT labeling mixture (100 μl) were added to each of the wells and after a 4 h incubation period the plates were read at 450 nm on an ELISA plate reader. […] Known for its cytotoxic activity, betulinic acid 2 was used as a positive control in this experimentation. […] All the IC50 results represent an average of a minimum of three experiments and were expressed as means±standard deviation (SD).

Assay [2] relates to HepG2 (human hepatocellular carcinoma). The experiment in a line: Cytotoxic activity, MTT assay, HepG2. The following applies: 72 h, mean ±SD. As to the method:
as §1

In assay [3] the test system is HeLa (human cervical adenocarcinoma). The experiment in a line: Cytotoxic activity, MTT assay, HeLa. The note with it: 72 h, mean ±SD. As to the method:
The cytotoxic of compounds of formulas (I) and (II) 14-50 was assessed towards human cancer (HepG2, HeLa and Jurkat) cell lines (Table 3 below). Compounds presented on Table 4 were also tested against a non-tumoral liver cell line (Chang liver). The cell viability of HeLa, HepG2 and Chang liver cells was determined by the MTT assay. Briefly, exponentially growing cells were plated in 96-well plates at a density of 1×10^3, 8×10^3 and 5×10^3 cells/well respectively and incubated for 24 h before treatment. The grown medium was replaced with one contained the tested compounds dissolved in DMSO (final DMSO concentration <0.1%) at different concentrations, in triplicate wells, and cells were incubated for 72 h. After incubation with the compounds, the medium was removed and MTT solution (0.5 mg/ml, 100 μl) was added to each well and the plates were incubated again for 1 h. DMSO (100 μl) was then added to dissolve the formazan crystals and the plates were immediately read at 550 nm on an ELISA plate reader (Tecan Sunrise MR20-301, TECAN, Austria). For the Jurkat cells, the cell viability was determined by the XTT assay. Briefly, exponentially growing cells were plated in 96-well plates at a density of 5.5×10^3 cells/well, treated with different concentrations of compounds in triplicate and incubated for 72 h. After incubation with the compounds the XTT labeling mixture (100 μl) were added to each of the wells and after a 4 h incubation period the plates were read at 450 nm on an ELISA plate reader. […] Known for its cytotoxic activity, betulinic acid 2 was used as a positive control in this experimentation.
On the technique in general: Tetrazolium assays rely on reduction of a dye to a coloured formazan, in cell work by metabolically active cells.

Assay [4] concerns HT-29 (human colon adenocarcinoma). The experiment in a line: Cytotoxic activity, HT-29. The note with it: mean ±SD. How it is done:
Compounds presented in Table 6 were also tested in the following cell lines: PC-3 (human prostate adenocarcinoma), LNCaP (human prostate adenocarcinoma), LAPC4 (human prostate adenocarcinoma) and HT-29 (human colon adenocarcinoma).

By IC50 is commonly meant the concentration at which inhibition is half-maximal. A low value points to greater potency in that assay. On to “3β-(1H-imidazole-2′-methyl-1-carbonyloxy)-lup-20(29)-en-28-oic acid [Compound 29]”, for which the IC50 turned out to be 16.1 ± 3.3 µM in assay [1], 7.3 ± 1 µM in assay [2], 7.5 ± 1.5 µM in assay [3] and 5.7 ± 0.6 µM in assay [4].
With `C=C(C)[C@@H]1CC[C@]2(COC(=O)n3ccnc3C)CC[C@]3(C)[C@H](CC[C@@H]4[C@@]5(C)CC[C@H](O)C(C)(C)[C@@H]5CC[C@]43C)[C@@H]12` [Compound 15, 3β-hydroxy-lup-20(29)-en-28-yl-2′-methyl-1H-imidazole-1-carboxylate], the IC50 in assay [1] is 15.8 ± 2.4 µM; in assay [2] it was 8.1 ± 0.4 µM; in assay [3], 11 ± 1.7 µM; in assay [4] it was 16.2 ± 2.1 µM.
For `C=C(C)[C@@H]1CC[C@]2(C(=O)OC)CC[C@]3(C)[C@H](CC[C@@H]4[C@@]5(C)CC[C@H](OC(=O)n6ccnc6C)C(C)(C)[C@@H]5CC[C@]43C)[C@@H]12` [Compound 34, Methyl 3β-(2′-methyl-1H-imidazole-1-carbonyloxy)-lup-20(29)-en-28-oate], in that order: 16.4 ± 2.4 µM, 13.4 ± 1.7 µM, 13.4 ± 1.7 µM and 12.9 ± 0.5 µM.
Turning to `C=C(COC)[C@@H]1CC[C@]2(COC(=O)n3ccnc3C)CC[C@]3(C)[C@H](CC[C@@H]4[C@@]5(C)CC[C@H](O)C(C)(C)[C@@H]5CC[C@]43C)[C@@H]12` [Compound 36, 3β-hydroxy-30-methoxylup-20(29)-en-28-yl-2′-methyl-1H-imidazole-1-carboxylate], the IC50 in assay [1] was 24.8 ± 4.7 µM; in assay [2], 14.4 ± 1.3 µM; in assay [3] it was 8.9 ± 2.1 µM; in assay [4] it was 10.4 ± 1.6 µM.
Taken in the same sequence, the figures for `Cc1nccn1C(=O)OC[C@]12CC[C@@H]([C@@H](C)C=O)C1[C@H]1CC[C@@H]3[C@@]4(C)CC[C@H](O)C(C)(C)[C@@H]4CC[C@@]3(C)[C@]1(C)CC2` (stereo partly drawn) [Compound 42, 3β-hydroxy-(20R)-lupan-29-oxo-28-yl-2′-methyl-1H-imidazole-1-carboxylate] were 21.3 ± 4.1 µM, 14.3 ± 2.4 µM, 16.6 ± 1.5 µM and 15.8 ± 1.7 µM.
For `C=C(C)[C@@H]1CC[C@]2(C(=O)n3ccnc3C)CC[C@]3(C)[C@H](CC[C@@H]4[C@@]5(C)CCC(=O)C(C)(C)[C@@H]5CC[C@]43C)[C@@H]12` [Compound 45, 28-(2′-methyl-1H-imidazol-1-yl)-lup-20(29)-en-3,28-dione], in that order: 9.3 ± 2.2 µM, 5.5 ± 1.1 µM, 4.2 ± 1.2 µM and 4.7 ± 1.1 µM.
Taken in the same sequence, the figures for `C=C(C)[C@@H]1CC[C@]2(C(=O)n3ccnc3C)CC[C@]3(C)[C@H](CC[C@@H]4[C@@]5(C)C=CC(=O)C(C)(C)[C@@H]5CC[C@]43C)[C@@H]12` [Compound 47, 28-(2′-methyl-1H-imidazol-1-yl)-lup-1,20(29)-dien-3,28-dione] were 9.4 ± 0.8 µM, 12.7 ± 1.2 µM, 6.4 ± 0.8 µM and 5.9 ± 0.3 µM.
Consider `C=C(C)[C@@H]1CC[C@]2(C(=O)O)CC[C@]3(C)[C@H](CC[C@@H]4[C@@]5(C)C=C(OC(=O)n6ccnc6C)C(=O)C(C)(C)[C@@H]5CC[C@]43C)[C@@H]12` [Compound 50, 2-(2′-methyl-1H-imidazole-1-carbonyloxy)-3-oxolup-1,20(29)-dien-28-oic acid], for which the IC50 in assay [1] was determined as 12.5 ± 1.2 µM; in assay [2] it was 6.8 ± 1.5 µM; in assay [3] it was 10.6 ± 0.7 µM; in assay [4] it was 9 ± 1.7 µM.
